From patent publication US20200131669A1, “CYCLIC PEPTIDE COMPOUND HAVING HIGH MEMBRANE PERMEABILITY, AND LIBRARY CONTAINING SAME” (Chugai Seiyaku Kabushiki Kaisha, priority 2017, published 2020) come the findings set out here.

SMILES strings stand for the structures. Starred links: 1 amine or outer side, 2 acyl side, 3 side chain; linkers in the order of their positions; H or OH if unused. Positions of bridges follow the written chain, without caps; N, C: chain ends. Non-standard residues stand in square brackets, D forms with d. Residues, ends and D or L forms follow the SMILES beside them. ξ: configuration not given here. *: point of attachment. X17 = O=C([C@H](CCCC(O)C(F)(F)F)N[*:1])[*:2]; NMeF = CN[C@@H](Cc1ccccc1)C(=O)O; NMeI = CC[C@H](C)[C@H](NC)C(=O)O; dNMeF = CN[C@H](Cc1ccccc1)C(=O)O; hPhe = N[C@@H](CCc1ccccc1)C(=O)O; CH2CH(OH)CF3 = OC(C*)C(F)(F)F; NMeL = CN[C@@H](CC(C)C)C(=O)O; dNMeL = CN[C@H](CC(C)C)C(=O)O; Propyl(2R-OH) = C[C@@H](O)C*; NMeV = CN[C@H](C(=O)O)C(C)C; NMeAbu = CC[C@H](NC)C(=O)O; NMeA = CN[C@@H](C)C(=O)O; Piperidide = C1CCN(*)CC1; NBuGly = CCCCNCC(=O)O; Ethyl(2-OH) = OCC*; X2 = Fc1cncc(C*)c1; Bn = c1ccc(C*)cc1; ξS = NC(CO)C(=O)O; Sar = CNCC(=O)O; tBu = CC(C)(C)*

One data set deals with Caco-2 cells. The experiment in a line: Caco-2 membrane permeability, improved method as used in the following Examples (96-well, 20 to 24 h preincubation). In kind it is in vitro ADME. The conditions noted are these: human, Caco-2, 180 min. The method in brief: (§1)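 Caco-2 monolayers were grown three weeks and preincubated 20–24 h at 37 °C with compound in DMEM+FaSSIF (1% DMSO) apically. The assay then used compound in FaSSIF/HBSS (1% DMSO, pH 6.0) apically and HBSS with 4% BSA (pH 7.4) basally. Basal samples were taken at 180 min for LC/MS, and Papp (cm/sec) was calculated.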
For orientation: Passage across Caco-2 layers is used to estimate intestinal permeability.
With `CC[C@H](C)[C@@H]1NC(=O)[C@H](Cc2ccccc2)N(C)C(=O)CN(C)C(=O)C[C@@H](C(=O)N2CCCCC2)NC(=O)[C@H]([C@@H](C)CC)N(C)C(=O)C(COCc2ccccc2)NC(=O)[C@H](CC(C)C)N(C)C(=O)[C@H](Cc2ccccc2)N(C)C(=O)CN(C)C(=O)[C@H]([C@@H](C)O)NC(=O)[C@H](CC(C)C)N(C)C1=O` (stereo partly drawn) [pd178] ([Sar][NMeF]I[NMeL]T[Sar][NMeF][NMeL][ξS](Bn)[NMeI]D-Piperidide; lactam N-11), the “Caco-2” value came to 2.5e-06 cm/s. The same measure, in the same setting: as for `CC(C)C[C@H]1C(=O)N[C@@H](COC(C)(C)C)C(=O)N(C)[C@@H](Cc2ccccc2)C(=O)N(C)[C@@H](C(C)C)C(=O)N[C@H](C(=O)N2CCCCC2)CC(=O)N[C@H](C)C(=O)N(C)[C@@H](Cc2ccccc2)C(=O)NC(COc2cccc(Cl)c2)C(=O)N(C)[C@@H](C(C)C)C(=O)N[C@@H]([C@@H](C)O)C(=O)N(C)CC(=O)N1C` (stereo partly shown) [pd185], the figure is 2.2e-06 cm/s; as for `CC[C@H](C)[C@H]1C(=O)N[C@@H]([C@@H](C)O)C(=O)N(C)CC(=O)N(C)[C@@H](C)C(=O)N[C@H](C(=O)N2CCCCC2)CC(=O)N(C)[C@@H](C)C(=O)N[C@@H](C(C)C)C(=O)N(C)[C@@H](CC(C)C)C(=O)N(C)[C@@H](Cc2ccccc2)C(=O)NC(COc2cccc(Cl)c2)C(=O)N(C)[C@@H](Cc2ccccc2)C(=O)N1C` (stereo partly shown) [pd186], 1.8e-06 cm/s; as for `CC[C@H](C)[C@H]1C(=O)N[C@@H]([C@@H](C)O)C(=O)N(C)CC(=O)N(C)[C@@H](CC(C)C)C(=O)N[C@H](C(=O)N2CCCCC2)CC(=O)N(C)[C@@H](C)C(=O)NC(COc2cccc(Cl)c2)C(=O)N(C)[C@@H](CC(C)C)C(=O)N(C)[C@@H](Cc2ccccc2)C(=O)N[C@@H](C)C(=O)N(C)[C@@H](Cc2ccccc2)C(=O)N1C` (stereo partly shown) [pd188], 1.3e-06 cm/s.

As for `CC(C)C[C@H]1C(=O)N[C@H](C(=O)N2CCCCC2)CC(=O)N[C@H](C)C(=O)N(C)[C@@H](CC(C)C)C(=O)N[C@@H](COC(C)(C)C)C(=O)N(C)[C@@H](C)C(=O)N(C)[C@@H](CC(C)C)C(=O)N(C)[C@@H](C)C(=O)N[C@@H]([C@@H](C)O)C(=O)N(C)[C@@H](Cc2ccccc2)C(=O)N[C@@H](CCc2ccccc2)C(=O)N1C` [pd309] ([dA][NMeL]S(tBu)[NMeA][NMeL][NMeA]T[NMeF][hPhe][NMeL]D-Piperidide; lactam N-11), the Caco-2 was 1.1e-06 cm/s. Compound `CC[C@H](C)[C@H]1C(=O)N[C@@H]([C@@H](C)O)C(=O)N(C)CC(=O)N(C)[C@@H](CC(C)C)C(=O)N[C@H](C(=O)N2CCCCC2)CC(=O)N(C)[C@@H](C(C)C)C(=O)N[C@@H](COCc2cncc(F)c2)C(=O)N(C)[C@@H](CC(C)C)C(=O)N(C)[C@@H](Cc2ccccc2)C(=O)N[C@@H](CC(C)C)C(=O)N(C)[C@@H](Cc2ccccc2)C(=O)N1C` [pd347] ([NMeV]S(X2)[NMeL][NMeF]L[NMeF][NMeI]T[Sar][NMeL]D-Piperidide; lactam N-11) came in with a Caco-2 of 1.1e-06 cm/s.

System in another data set: not listed separately
Described as above. In kind it is in vitro ADME. Conditions: Caco-2, Caco-2. Summed up: as §1
For `CC[C@H](C)[C@@H]1NC(=O)[C@H](CC(C)C)N(C)C(=O)[C@H](CCCC(O)C(F)(F)F)NC(=O)[C@H](Cc2ccccc2)N(C)C(=O)CN(C)C(=O)C[C@@H](C(=O)N2CCCCC2)NC(=O)[C@H](CC(C)C)N(C)C(=O)[C@H](COC(C)(C)C)NC(=O)[C@H](CC(C)C)N(C)C(=O)[C@H](Cc2ccccc2)N(C)C(=O)CN(C)C1=O` (stereo partly drawn) [pd502] ([Sar][NMeF][X17][NMeL]I[Sar][NMeF][NMeL]S(tBu)[NMeL]D-Piperidide; lactam N-11), the apical-to-basolateral permeability (Papp A→B) is 1 ×10⁻⁶ cm/s.

Still in this data set, the particulars now being: human, Caco-2, Caco-2.
Regarding `CCCCN1CC(=O)N(C)[C@H](Cc2ccccc2)C(=O)N(C)[C@@H](CC(C)C)C(=O)N[C@@H](COC(C)(C)C)C(=O)N(C)[C@@H](CC(C)C)C(=O)N[C@H](C(=O)N2CCCCC2)CC(=O)N(C)CC(=O)N(C)[C@@H](Cc2ccccc2)C(=O)N[C@@H](C(C)C)C(=O)N(C)[C@@H](CC(C)C)C(=O)N[C@@H](COC[C@@H](C)O)C1=O` [pd496] ([Sar][NMeF]V[NMeL]S(Propyl(2R-OH))[NBuGly][dNMeF][NMeL]S(tBu)[NMeL]D-Piperidide; lactam N-11), the Papp A→B at 180 min came out at 1 ×10⁻⁶ cm/s.

Compound `CC[C@H](C)[C@@H]1NC(=O)[C@H](CC(C)C)N(C)C(=O)[C@H](COC[C@@H](C)O)NC(=O)[C@H](Cc2ccccc2)N(C)C(=O)CN(C)C(=O)C[C@@H](C(=O)N2CCCCC2)NC(=O)[C@H](CC(C)C)N(C)C(=O)[C@H](COC(C)(C)C)NC(=O)[C@H](CC(C)C)N(C)C(=O)[C@H](Cc2ccccc2)N(C)C(=O)CN(C)C1=O` [pd497] ([Sar][NMeF]S(Propyl(2R-OH))[NMeL]I[Sar][NMeF][NMeL]S(tBu)[NMeL]D-Piperidide; lactam N-11) gave a Papp A→B at 180 min of 3.3 ×10⁻⁶ cm/s. This Papp A→B at 180 min is about 3.3-fold higher than that of the compound before. `CC[C@H](C)[C@H]1C(=O)N[C@@H](COCCO)C(=O)N(C)CC(=O)N(C)[C@@H](CC(C)C)C(=O)N[C@H](C(=O)N2CCCCC2)CC(=O)N(C)[C@@H](C)C(=O)N[C@@H](CC(C)C)C(=O)N(C)[C@@H](CC(C)C)C(=O)N(C)[C@@H](Cc2ccccc2)C(=O)N[C@@H](CC(C)C)C(=O)N(C)[C@@H](Cc2ccccc2)C(=O)N1C` [pd499] ([NMeA]L[NMeL][NMeF]L[NMeF][NMeI]S(Ethyl(2-OH))[Sar][NMeL]D-Piperidide; lactam N-11) showed a Papp A→B at 180 min of 4.7 ×10⁻⁶ cm/s. Compound `CC[C@H](C)[C@H]1C(=O)N[C@@H](C(C)C)C(=O)N(C)CC(=O)N(C)[C@@H](CC(C)C)C(=O)N[C@H](C(=O)N2CCCCC2)CC(=O)N(C)[C@@H](C)C(=O)N[C@@H](COCCO)C(=O)N(C)[C@H](CC(C)C)C(=O)N(C)[C@@H](Cc2ccccc2)C(=O)N[C@@H](CC(C)C)C(=O)N(C)[C@@H](Cc2ccccc2)C(=O)N1C` [pd500] ([NMeA]S(Ethyl(2-OH))[dNMeL][NMeF]L[NMeF][NMeI]V[Sar][NMeL]D-Piperidide; lactam N-11) displayed an apparent permeability from apical to basolateral (Papp A→B) at 180 min of 2.2 ×10⁻⁶ cm/s.

`CC[C@H]1C(=O)N(C)[C@@H](Cc2ccccc2)C(=O)N[C@@H](CC(C)C)C(=O)N(C)[C@@H](Cc2ccccc2)C(=O)N(C)[C@@H](C(C)C)C(=O)N[C@@H](COCC(O)C(F)(F)F)C(=O)N(C)CC(=O)N(C)[C@@H](CC(C)C)C(=O)N[C@H](C(=O)N2CCCCC2)CC(=O)N(C)[C@@H](C)C(=O)N[C@@H](CC(C)C)C(=O)N1C` (stereo partly drawn) [pd503] ([NMeA]L[NMeAbu][NMeF]L[NMeF][NMeV]S(CH2CH(OH)CF3)[Sar][NMeL]D-Piperidide; lactam N-11) had an apical-to-basolateral permeability (Papp A→B) at 180 min of 2 ×10⁻⁶ cm/s. The same measure, in the same setting: as for `CC[C@H](C)[C@@H]1NC(=O)[C@H](CC(C)C)N(C)C(=O)[C@H](COCC(O)C(F)(F)F)NC(=O)[C@H](Cc2ccccc2)N(C)C(=O)CN(C)C(=O)C[C@@H](C(=O)N2CCCCC2)NC(=O)[C@H](CC(C)C)N(C)C(=O)[C@H](COC(C)(C)C)NC(=O)[C@H](CC(C)C)N(C)C(=O)[C@H](Cc2ccccc2)N(C)C(=O)CN(C)C1=O` (stereo partly drawn) [pd504] ([Sar][NMeF]S(CH2CH(OH)CF3)[NMeL]I[Sar][NMeF][NMeL]S(tBu)[NMeL]D-Piperidide; lactam N-11), the figure is 4.1 ×10⁻⁶ cm/s.

One may read the Papp A→B as the apparent permeability from the apical to the basolateral side of a cell layer. Read a high Papp A→B as ready permeation.
